Several values for one entry are separate records, joined by “and”; a condition that tells them apart may be missing. Equal values may be shown once.
Test system: PD-1-overexpressing Jurkat cells
Assay: Small molecule screen: IL2 secretion (AlphaLISA) from stimulated PD-1-overexpressing Jurkat cells
Type: cell-based, human
Details: 3.3 μM compound; for Zscore_1 / Zscore_2: IL2 level, α-CD3/α-CD28/α-PD-1 beads; for Zscore_1: replicate 1; for Zscore_2: replicate 2; for Zscore_AVG: average of replicate Z scores
Protocol: PD-1-overexpressing Jurkat cells were plated at a concentration of 100,000 cells/well in a total volume of 80 μl. […] Dynabeads conjugated to α-CD3, α-CD28, and α-PD-1 antibodies were added in 20 for a final assay volume of 100 with a final compound concentration of 3.3 μM and an 8:1 bead:cell ratio. Beads were conjugated to α-CD3/α-CD28/control IgG and added to wells containing DMSO-treated cells as a positive control, while beads conjugated to α-CD3/α-CD28/α-PD1 were added to wells containing DMSO-treated cells as a negative control. Supernatants from each well were analyzed for IL2 levels by AlphaLISA (Perkin Elmers) according to the manufacturer's protocol. Average and standard deviation values were calculated from the PD-1 controls (DMSO-treated cells stimulated with α-CD3/α-CD28/α-PD-1 beads); hits were defined as compounds scoring at least 3 standard deviations from the mean of the controls.
In addition to known negative regulators of IL-2 production (e.g. glycogen synthase kinase-3α/β (GSK3α/β) (24,25)), this screen identified cyclin-dependent kinases 4 and 6 inhibitors (CDK4/6i) as top hits (Table 1).

Molecule `CC[C@H](CO)Nc1nc(NCc2ccc(-c3ccccn3)cc2)c2ncn(C(C)C)c2n1` (single isomer, unassigned) [CR8, (R)-Isomer] has a Zscore_1 of −9.662, a Zscore_2 of −6.961 and a Zscore_AVG of −8.311.
`CC[C@@H](CO)Nc1nc(NCc2ccc(-c3ccccn3)cc2)c2ncn(C(C)C)c2n1` (single isomer, unassigned) [CR8, (S)-Isomer] gave a Zscore_1 of −10.2, a Zscore_2 of −10.59 and a Zscore_AVG of −10.39.
In the case of `CC[C@@H](CO)Nc1nc(NCc2ccccc2)c2ncn(C(C)C)c2n1` (single isomer, unassigned) [Roscovitine, (S)-Isomer], the Zscore_1 is reported as −2.928, the Zscore_2 is reported as −1.279 and the Zscore_AVG is reported as −2.103.
Work on `O=C1Cc2c([nH]c3ccc(Br)cc23)-c2ncccc2N1` [1-Azakenpaullone] yielded a Zscore_1 of 0.418, a Zscore_2 of 1.913 and a Zscore_AVG of 1.165.
In the case of `Cc1ncc2ccccc2c1C#N` [4-Cyano-3-methylisoquinoline], the Zscore_1 is reported as −0.7566, the Zscore_2 is reported as 0.1385 and the Zscore_AVG is reported as −0.3091.
In the case of `Nc1ncnc2c1c(I)cn2[C@@H]1O[C@H](CO)[C@@H](O)[C@H]1O` [5-Iodotubercidin], the Zscore_1 is reported as −4.799, the Zscore_2 is reported as −6.213 and the Zscore_AVG is reported as −5.506.
For `N#CC(C#N)=C(N)/C(C#N)=C/c1ccc(O)cc1` [AG 112], the Zscore_1 was −1.54, the Zscore_2 was −3.816 and the Zscore_AVG was −2.678.
Molecule `N#C/C(=C/c1ccc(O)c(O)c1)C(=O)NCc1ccccc1` [AG 490] has a Zscore_1 of −2.645, a Zscore_2 of 0.2008 and a Zscore_AVG of −1.222.
In the case of `CC(C)(C)c1cc(C=C(C#N)C#N)cc(Br)c1O` [AG 1024], the Zscore_1 is reported as 0.3395, the Zscore_2 is reported as 0.506 and the Zscore_AVG is reported as 0.4228.
Work on `Cc1cc2ncc(-c3ccccc3)nc2cc1C` [AG 1295] yielded a Zscore_1 of −0.2372, a Zscore_2 of −3.097 and a Zscore_AVG of −1.667.
For `COc1cc2ncc(-c3ccccc3)nc2cc1OC` [AG 1296], the Zscore_1 was 0.5275, the Zscore_2 was −0.8562 and the Zscore_AVG was −0.1643.
In the case of `COc1cc2ncnc(Nc3cccc(Cl)c3)c2cc1OC` [AG 1478], the Zscore_1 is reported as −1.129, the Zscore_2 is reported as −1.216 and the Zscore_AVG is reported as −1.173.
`Cc1nc2cc3nc(-c4cccs4)cnc3cc2n1C` [AGL 2043] gave a Zscore_1 of −0.2488, a Zscore_2 of 1.253 and a Zscore_AVG of 0.5019.
Work on `c1cc(-c2cnn3cc(-c4ccc(OCCN5CCCCC5)cc4)cnc23)ccn1` [AMPK Inhibitor, Compound C] yielded a Zscore_1 of −2.877, a Zscore_2 of 1.296 and a Zscore_AVG of −0.7902.
Work on `O=c1cc(-c2cccc3c2Sc2ccccc2S3)oc(N2CCOCC2)c1` [ATM Kinase Inhibitor] yielded a Zscore_1 of 1.379, a Zscore_2 of 4.382 and a Zscore_AVG of 2.881.
`O=C(NC(NC(=S)Nc1ccc(F)c([N+](=O)[O-])c1)C(Cl)(Cl)Cl)C(c1ccccc1)c1ccccc1` (stereo not drawn) [ATM/ATR Kinase Inhibitor] was tested, and the Zscore_1 was −1.798, the Zscore_2 was −1.073 and the Zscore_AVG was −1.436.
With `Cl.Cl.Nc1ncnc2nc(-c3ccc(N4CCOCC4)nc3)cc(-c3cccc(Br)c3)c12` [Adenosine Kinase Inhibitor] the Zscore_1 was 0.3983, the Zscore_2 was 0.5922 and the Zscore_AVG was 0.4953.
`CC[n+]1c(/C=C/N(C)c2ccccc2)n(-c2ccccc2)c2ccc(-c3nc4ccccc4s3)cc21.[I-]` [Akt Inhibitor IV] showed a Zscore_1 of −5.269, a Zscore_2 of −6.844 and a Zscore_AVG of −6.057.
`O=c1[nH]c2ccccc2n1C1CCN(Cc2ccc(-c3nc4cc5nc[nH]c5cc4nc3-c3ccccc3)cc2)CC1` [Akt Inhibitor VIII, Isozyme- Selective, Akti-1/2] was tested, and the Zscore_1 was 1.673, the Zscore_2 was 1.052 and the Zscore_AVG was 1.362.
With `CCN(CC)CCCCN1c2ccccc2Oc2ccc(Cl)cc21` [Akt Inhibitor X] the Zscore_1 was 2.25, the Zscore_2 was 6.382 and the Zscore_AVG was 4.316.
`CCCCc1c(-c2ccc(O)cc2)[nH]c2nccnc12` [Aloisine A, RP107] gave a Zscore_1 of −3.301, a Zscore_2 of −1.322 and a Zscore_AVG of −2.311.
`CCCCc1c(-c2ccc(OC)cc2)[nH]c2nccnc12` [Aloisine, RP106] was tested, and the Zscore_1 was −0.8722, the Zscore_2 was −4.242 and the Zscore_AVG was −2.557.
`N#CCCc1ccc2c(c1)-c1[nH]c3ccc([N+](=O)[O-])cc3c1CC(=O)N2` [Alsterpaullone, 2-Cyanoethyl] showed a Zscore_1 of −5.269, a Zscore_2 of −7.447 and a Zscore_AVG of −6.358.
`O=C1Cc2c([nH]c3ccc([N+](=O)[O-])cc23)-c2ccccc2N1` [Alsterpaullone] gave a Zscore_1 of −0.7783, a Zscore_2 of −3.341 and a Zscore_AVG of −2.06.
With `CC(C)[C@H](CO)Nc1nc(Nc2cc(N)cc(Cl)c2)c2ncn(C(C)C)c2n1` [Aminopurvalanol A] the Zscore_1 was −3.687, the Zscore_2 was −3.638 and the Zscore_AVG was −3.662.
`O=C1NC(=O)c2c1c1c3ccccc3[nH]c1c1[nH]c3ccccc3c21` [Arcyriaflavin A, Synthetic] gave a Zscore_1 of 3.889, a Zscore_2 of 5.674 and a Zscore_AVG of 4.782.
For `O=C(Nc1cccc(Nc2nccc(Nc3cccc(C(F)(F)F)c3)n2)c1)C1CC1` [Aurora Kinase Inhibitor III], the Zscore_1 was 7.108 and 2.737, the Zscore_2 was 6.482 and −0.8139 and the Zscore_AVG was 6.795 and 0.9614.
With `COc1cc2ncnc(Nc3ccc(NC(=O)c4ccccc4)cc3)c2cc1OC` [Aurora Kinase Inhibitor II] the Zscore_1 was −0.6024, the Zscore_2 was 2.958 and the Zscore_AVG was 1.178.
Work on `Nc1nc(Nc2ccc(S(N)(=O)=O)cc2)nn1C(=O)c1c(F)cccc1F` [Aurora Kinase/Cdk Inhibitor] yielded a Zscore_1 of −1.131, a Zscore_2 of −3.054 and a Zscore_AVG of −2.093.
Work on `Cc1ccc(S(=O)(=O)/C=C/C#N)cc1` [BAY 11-7082] yielded a Zscore_1 of −3.877, a Zscore_2 of −4.461 and a Zscore_AVG of −4.169.
Work on `Cn1cnc2cc3c(Nc4cccc(Br)c4)ncnc3cc21` [BPIQ-I] yielded a Zscore_1 of 0.6533, a Zscore_2 of 1.97 and a Zscore_AVG of 1.312.
Molecule `NC(=O)c1cccc(-c2cc(Nc3ccc(OC(F)(F)F)cc3)ncn2)c1` [Bcr-abl Inhibitor] has a Zscore_1 of 1.402, a Zscore_2 of 5.274 and a Zscore_AVG of 3.338.
For `Cl.NCCCn1cc(C2=C(c3c[nH]c4ccccc34)C(=O)NC2=O)c2ccccc21` [Bisindolylmaleimide III, Hydrochloride], the Zscore_1 was −3.661, the Zscore_2 was −5.093 and the Zscore_AVG was −4.377.
In the case of `O=C1NC(=O)C(c2c[nH]c3ccccc23)=C1c1c[nH]c2ccccc12` [Bisindolylmaleimide IV], the Zscore_1 is reported as −2.073, the Zscore_2 is reported as −2.336 and the Zscore_AVG is reported as −2.205.
Work on `CN(C)CCCn1cc(C2=C(c3c[nH]c4ccccc34)C(=O)NC2=O)c2ccccc21` [Bisindolylmaleimide I] yielded a Zscore_1 of −9.431, a Zscore_2 of −8.32 and a Zscore_AVG of −8.875.
`CN1C(=O)C(c2c[nH]c3ccccc23)=C(c2c[nH]c3ccccc23)C1=O` [Bisindolylmaleimide V] showed a Zscore_1 of −0.6214, a Zscore_2 of 1.109 and a Zscore_AVG of 0.2438.
`NC(=O)c1ccc(-c2nc(-c3ccc4c(c3)OCCO4)c(-c3ccccn3)[nH]2)cc1` [Casein Kinase I Inhibitor, D4476] showed a Zscore_1 of −1.219, a Zscore_2 of 1.296 and a Zscore_AVG of 0.03862.
Molecule `O=C(O)C=Cc1cc(Br)c(Br)c(Br)c1Br` [Casein Kinase II Inhibitor III, TBCA] has a Zscore_1 of 1.017, a Zscore_2 of 1.548 and a Zscore_AVG of 1.282.
`Brc1c(Br)c(Br)c2n[nH]nc2c1Br` [Casein Kinase II Inhibitor I] showed a Zscore_1 of 0.6337, a Zscore_2 of 0.5348 and a Zscore_AVG of 0.5842.
`CCN1/C(=C/C(C)=O)Sc2ccc(OC)cc21` [Cdc2-Like Kinase Inhibitor, TG003] was tested, and the Zscore_1 was −1.367, the Zscore_2 was −2.423 and the Zscore_AVG was −1.895.
In the case of `O=C1NCCc2[nH]c(-c3ccncc3)cc21` [Cdc7/Cdk9 Inhibitor], the Zscore_1 is reported as −9.816, the Zscore_2 is reported as −10.33 and the Zscore_AVG is reported as −10.08.
With `O=C1NC(=NCc2cccs2)S/C1=C\c1ccc2ncccc2c1` [Cdk1 Inhibitor IV, RO-3306] the Zscore_1 was −4.188, the Zscore_2 was −2.228 and the Zscore_AVG was −3.208.
With `CCn1cnc2c(Nc3cccc(Cl)c3)nc(N[C@@H]3CCCC[C@@H]3N)nc21` [Cdk1 Inhibitor, CGP74514A] the Zscore_1 was 1.595, the Zscore_2 was −1.02 and the Zscore_AVG was 0.2878.
For `O=C1Nc2ccccc2/C1=C\c1c(Cl)[nH]c2ccccc12` [Cdk1 Inhibitor], the Zscore_1 was −0.7783, the Zscore_2 was −0.6137 and the Zscore_AVG was −0.696.
`Nc1nc(Nc2ccc(S(N)(=O)=O)cc2)nn1C(=S)Nc1c(F)cccc1F` [Cdk1/2 Inhibitor III] was tested, and the Zscore_1 was −10.55, the Zscore_2 was −11.64 and the Zscore_AVG was −11.1.
`Nc1[nH]nc2nc3ccccc3nc12` [Cdk1/5 Inhibitor] was tested, and the Zscore_1 was −2.414, the Zscore_2 was −4.695 and the Zscore_AVG was −3.555.
Molecule `COc1ccc(CNc2nc(N(CCO)CCO)nc3c2ncn3C(C)C)cc1` [Cdk2 Inhibitor III] has a Zscore_1 of −2.414, a Zscore_2 of −4.745 and a Zscore_AVG of −3.58.

Reference: patent US11865176B2, “Compositions and methods of modulating anti-tumor immunity” (Dana-Farber Cancer Institute, Inc., priority 2016, dated 2024)
